Data published in US9975914B2, “Antimicrobial preparation and uses thereof” (Akeso Biomedical, Inc., priority 2015, dated 2018).
Values joined by “and” are separate entries in the source; they are usually repeats but may differ in a detail not shown here. Equal values may be shown once. “Also recorded” adds a separate entry of the source. Marks after values point to notes of the source that are not given here.

Tests used:
[1] = tested on: mature EPEC-ΔcsrA biofilm; experiment: Disruption of preformed biofilm, BioFlux system; format: cell-based, E. coli; conditions: FeDOPA 100 μM; 20 hours
[2] = tested on: Enteropathogenic E. coli (EPEC) E2348/69; experiment: Crystal violet assay of attachment to plastic well surface; format: cell-based; conditions: 48 hours
Experimental: (§1) Enteropathogenic E. coli (EPEC) E2348/69 were grown in wells for 48 hours at 37° C. in the presence of FeQ (100 μM), and in the absence of FeQ (as control). After 48 hours, the wells were washed in order to remove suspended cells. Crystal violet was then added to each well. The wells were then washed to remove excess dye. A mixture of acetone/ethanol was then added to the wells to re-suspend any cells attached to the plastic surface of the wells, and dissolve any dye present. The presence of dye in each well was then quantified by measuring the O.D. at 570 nm.
as §1, with “FeDOPA (10-250” for “FeQ (100”, “FeDOPA” for “FeQ”

Campylobacter = experiment: Broiler trial: Campylobacter carriage in droppings and caeca; format: in vivo; conditions: chickens challenged day 20
Experimental: (§2) A study was performed to evaluate growth promotion and reduction of Campylobater carriage using FeQ and FeTyr in Ross 308 male broilers with 7 treatment groups. Each treatment group comprised four replicates of 10 birds per pen (40 birds/treatment group and 4 pens of 10 birds/treatment group), and there were 2 control groups and 5 test groups. All the test groups and one of the control groups were exposed at day 20 of the trial to dirty litter, which tested positive for Campylobacter. This method was used to provide a more natural method to Campylobater challenge the birds. Thus there was a positive control where one treatment group was challenged with Campylobacter and one negative control group where the birds were not challenged, and five treatment groups that were all challenged with Campylobacter. The total number of birds used in the 7 treatment groups was 280. Treatment group 1 was a negative control where birds just received the commercial feed, and were not challenged with dirty litter containing Campylobacter. Treatment group 2 was the positive control where the birds received the commercial feed, and were challenged with dirty litter containing Campylobater at day 20. Treatment group 3 received 0.22 g/L of FeQ in their drinking water and 0.22 g/Kg FeQ in their feed during the entire trial, and was challenged with dirty litter containing Campylobater at day 20. Treatment group 5 received 0.22 g/L of FeQ in their drinking water during the entire trial, and was challenged with dirty litter containing Campylobater at day 20. Treatment group 6 received 0.22 g/kg FeQ in their feed during the entire trial, and was challenged with dirty litter containing Campylobater at day 20. Treatment group 7 received 0.022 g/L FeQ in their drinking water during the entire trial, and was challenged with dirty litter containing Campylobater at day 20. Treatment group 8 received 0.02 g/L FeTyr in their drinking water during the entire trial, and was challenged with dirty litter containing Campylobater at day 20. The FeTyr was pre-dissolved in DMSO, and diluted to provide a solution of 0.02 g/L of FeTyr in water. (An additional treatment group 4 was terminated due to solubility issues.)
(§3) Prior to challenging the chickens with dirty litter containing Campylobacter at day 20, each pen was tested for Campylobater using cloacal swabs. All pens tested negative for Campylobater prior to the challenge. At day 20, litter, which was naturally Campylobacter-contaminated was tested to confirm the presence of Campylobacter, and then added (approximately 2 kg/pen) to the litter in all pens except in pens for treatment group 1 (the negative control). At day 28, the pen litter was sampled to confirm the presence or absence of Campylobacter. At day 41 and 42, caecal samples were taken from 3 birds per pen (12 birds per treatment group) and tested for Campylobater enumeration. At day 42, digesta, fecal samples, and caecal content was taken from all birds, and pooled per pen. Two birds per pen were also taken from treatment groups 1-3, euthanized, and blood samples taken. Samples were analyzed for blood chemistry, including analysis for alkaline phosphatase, aspartate amino transferase, alanine amino transferase, gamma-glutamyl transferase, lactate dehydrogenase, total protein, albumin, globulin, amylase and glucose.

[3] = tested on: Enterococcus faecalis NCTC 12697; experiment: Biofilm formation on plastic coated UV beads; format: cell-based; conditions: different concentrations of Fe-QA; T=0 and T=24 h
Experimental: (§4) Bacteria (Enterococcus faecalis NCTC 12697, Staphylococcus epidermidis F1513 and Staphylococcus aureus ATCC 25923) were grown on Brain heart infusion (BHI) passaged to new medium either containing Fe-QA or alone. Growth suspensions were prepared at 0.0001 OD/mi and then allowed to grow at 37° C. under nounal atmospheric conditions for 24 h in BHI with plastic coated UV beads (Lascells). […], 10 μl suspension was serially diluted 10 fold to 10-3, 10-4, 10-5, 10-6, 10-7, 10-8. For each dilution, 10 μl was spotted on BHI agar plates and colonies counted after 24 h. The beads were also removed washed in PBS before adding to 1 ml PBS. After vortex mixing, 10 μl of the cell suspension was serially diluted as above and cell counts carried out.

[4] = tested on: Staphylococcus epidermidis F1513; experiment: Biofilm formation on plastic coated UV beads; format: cell-based; conditions: different concentrations of Fe-QA; T=0 and T=24 h
Experimental: as §4

[5] = tested on: Staphylococcus aureus ATCC 25923; experiment: Biofilm formation on plastic coated UV beads; format: cell-based; conditions: different concentrations of Fe-QA; T=0 and T=24 h
Experimental: as §4

[6] = tested on: bacterial flora present in the mouth; experiment: Biofilm formation on extracted human teeth (CEPLAC staining); format: cell-based; conditions: FeQ 340 μM; 48 hours of culturing
Experimental: Molar teeth were extracted from human patients, and mouth swabs taken from each patient to obtain samples of each patient's bacterial flora present in the mouth. The mouth swabs were cultured in the laboratory using LB media in order to grow bacterial populations ordinarily present in the mouth of each patient. The extracted teeth were washed and brushed extensively using PBS buffer and ethanol. Each patient's tooth was then placed in the bacterial culture prepared from that patient's bacterial flora sample, and cultured aerobically for 24 hours in LB media. The teeth were then stained with CEPLAC™ (Manx Healthcare Ltd, Warwick, UK), and washed three times with PBS-Tween (50 mL) to determine if biofilm had been formed on the teeth.
All teeth stained red indicating the presence of biofilm on the teeth after just 24 hours. The same teeth were then cleaned using PBS buffer and ethanol, and the procedure repeated except with 48 hours of culturing in the presence of FeQ (340 μM).

[7] = tested on: uropathogenic Escherichia coli UPEC-536; experiment: Biofilm coverage rate on glass slide; format: cell-based; conditions: 0.1 μM, 1 μM, 10 μM and 100 μM; 72 hours; listed as Fe-QA
[8] = Broiler trial: growth performance; format: in vivo, chicken (Ross 308 male broilers)
Experimental: as §2
The birds were fed with a commercial three-phase feeding program using starter, grower and finisher feeds with formulations shown in Table 2. All diets had coccidiostat (MAXIBAN® at 0.0625% in starter and […] and MONTEBAN® at 0.06% in finisher phase). Xylanase (RONOZYME® WX at 200 g per ton) and phytase (RONOZYME® P at 150 grams per ton) were added to all diets.
The feeding program is show in Table 3. The birds were reared in floor pens to day 42, and fed starter, grower and finisher feed at day 0 to 11, 11 to 24, and 24 to 42 days, respectively. All birds were weighed individually and feed weigh backs recorded per pen at day 0, 11, 21, 24 and 42 days.
as §3, with “Samples were analyzed for blood chemistry, including analysis for alkaline phosphatase, aspartate amino transferase, alanine amino transferase, gamma-glutamyl transferase, lactate dehydrogenase, total protein, albumin, globulin, amylase and glucose.” left out

[9] = tested on: Pseudomonas aeruginosa PAO-1; experiment: Biofilm coverage rate on glass slide; format: cell-based; conditions: 100 μM; 72 hours
[10] = Treatment of an acne patient; format: in vivo, human
Experimental: A patient was treated continuously for 30 days by applying a solution of ferric quinate (340 μM) to their acne vulgarism (“acne”) once each day. Within 5 days of the start of treatment, their acne, which had not previously responded to treatment with antibiotics, began to show signs of healing.

[11] = tested on: PAO-1 strains of Pseudomonas aeruginosa; experiment: Biofilm formation on contact lens (ESEM); format: cell-based; conditions: 340 μM in LB, 37° C., 24 hours
Experimental: To investigate biofilm formation on the contact lens, clinically determined PAO-1 strains of Pseudomonas aeruginosa were incubated with the lenses in either Luria-Bertani Media (LB) or LB with a final concentration of 340 μM FeQ at 37° C. for 24 hours in a non-shaking incubator. The lenses were then washed 6 times with PBS+0.05% Tween, before being stored overnight in PBS+0.05% Tween. In preparation for the ESEM, formaldehyde was added to a final concentration of 1% and incubated for 10 minutes in order to inactivate the bacteria. The lenses were then washed 4 times with PBS+0.05% Tween, and immediately before analysis the lenses were washed a further two times with distilled water.

[12] = FeQ treatments 3, 5, 6, 7, FeTyr treatment 8, challenged day 20
[13] = treatment 3: 0.22 g/L FeQ in water + 0.22 g/kg FeQ in feed, challenged day 20
[14] = treatment 5: 0.22 g/L FeQ in water, challenged day 20
[15] = treatment 6: 0.22 g/kg FeQ in feed, challenged day 20
[16] = treatment 7: 0.022 g/L FeQ in water, challenged day 20

Fe(DOPA)3 [FeDOPA]
dispersion of mature biofilm [1]: dispersed the biofilm | attachment of EPEC cells to plastic well surface (crystal violet O.D. at 570 nm) ([2]; FeDOPA 68-250 μM): attachment of bacterial cells to the surface and biofilm formation is inhibited

O=C([O-])C1(O)CC(O)C(O)C(O)C1.O=C([O-])C1(O)CC(O)C(O)C(O)C1.O=C([O-])C1(O)CC(O)C(O)C(O)C1.[Fe+3] (stereo not drawn) [FeQ, ferric quinate]
average Campylobacter cfu/g of caeca samples at day 42 versus positive control (Campylobacter; FeQ treatments 3, 5, 6, 7, FeTyr treatment 8): lower levels of Campylobacter in their caeca; also recorded: positive effect on reducing Campylobacter infection of poultry | Campylobacter cfu/g of bird droppings at day 42 versus positive control (Campylobacter; FeQ treatments 3, 6, 7, FeTyr treatment 8): positive effect on reducing Campylobacter infection of poultry | Campylobacter colony forming units per gram of bird droppings at day 42 (Campylobacter; treatment 3: 0.22 g/L FeQ in water + 0.22 g/kg FeQ in feed): 4,860 cfu/g | Campylobacter colony forming units per gram of bird droppings at day 42 (Campylobacter; treatment 6: 0.22 g/kg FeQ in feed): 12,800 cfu/g | Campylobacter colony forming units per gram of bird droppings at day 42 (Campylobacter; treatment 7: 0.022 g/L FeQ in water): 900,000 cfu/g | biofilm formation on plastic coated UV beads [3]: inhibited E. faecalis biofilm formation | biofilm formation on plastic coated UV beads [4]: inhibited S. epidermidis biofilm formation | biofilm formation on plastic coated UV beads [5]: inhibited S. aureus biofilm formation | biofilm on teeth (red CEPLAC staining) [6]: no teeth stained red | biofilm formation (coverage rate on glass slide) [7]: inhibits founation of biofilm; also recorded: inhibits the formation of biofilm | MFCR (mortality adjusted feed conversion ratio) 0-20 ([8]; FeQ groups 3, 5, 6, 7 pooled, absence of Campylobacter challenge): 1.2996 | MFCR at day 42 versus positive control [8, 12]: positive effect on MFCR | average body weight at day 42 versus positive control [8, 12]: positive effect on growth | ABW (average body weight) Day 0 [8, 13]: 0.040 kg | MFCR (mortality adjusted feed conversion ratio) Day 0-11 [8, 13]: 1.181^ab | MFCR (mortality adjusted feed conversion ratio) Day 0-42 [8, 13]: 1.595 | ABW (average body weight) Day 0 [8, 14]: 0.040 kg | MFCR (mortality adjusted feed conversion ratio) Day 0-11 [8, 14]: 1.210^ab | MFCR (mortality adjusted feed conversion ratio) Day 0-42 [8, 14]: 1.560 | ABW (average body weight) Day 0 [8, 15]: 0.041 kg | AFD (average feed intake) Day 0-11 [8, 15]: 0.360 kg | AWG (average weight gain) Day 0-11 [8, 15]: 0.310 kg | AWG (average weight gain) Day 11-20 [8, 15]: 0.640 kg | MFCR (mortality adjusted feed conversion ratio) Day 0-11 [8, 15]: 1.168^a | MFCR (mortality adjusted feed conversion ratio) Day 0-42 [8, 15]: 1.563 and 1,563 | ABW (average body weight) Day 0 [8, 16]: 0.040 kg | MFCR (mortality adjusted feed conversion ratio) Day 0-11 [8, 16]: 1.236^b | MFCR (mortality adjusted feed conversion ratio) Day 0-42 [8, 16]: 1.612 | biofilm formation (coverage rate on glass slide) [9]: inhibits the formation of biofilm | attachment of EPEC cells to plastic well surface (crystal violet O.D. at 570 nm) ([2]; FeQ 100 μM): little or no attachment of bacterial cells to the surface and no biofilm formation | acne outcome after treatment for 30 days ([10]; solution 340 μM applied once each day): completely healed | recurrence of acne after discontinuation of treatment for over one year ([10]; solution 340 μM applied once each day for 30 days): did not recur | time to first signs of healing of acne ([10]; solution 340 μM applied once each day, patient): ≤ 5 days | biofilm formation on contact lens (ESEM images) [11]: inhibits biofilm formation
